Source: US10711313B2, “Kit for detecting ctDNA and expression of drug-resistant genes related to applicability of tumor chemotherapeutic drugs” (GUIZHOU MEDICAL UNIVERSITY, priority 2018, dated 2020)

How the values were obtained:
ctDNA = ctDNA detection by fluorescence of the probe in Tris-HCl/KCl buffer pH 7.2; assay type: binding
Description: First, a buffer solution of pH 7.2 is prepared, the preparation process of which is as follows: 394 mg of Tris-HCl and 1.863 g of KCl are added to a 250 ml beaker, and deionized water is added to prepare a buffer solution containing 10 mmol/L Tris-HCl and 100 mmol/L KCl and of pH 7.2 buffer solution.
Then, the buffer solution was used to prepare 0-500 μg/ml ctDNA aqueous solutions, wherein the BHVC content was maintained at 5×10^−6 mol/L.
Taking deionized water solution with ctDNA content of 100 μg/ml as an example, the specific preparation process is described as follows: First, […] compound BHVC was added to a 100 ml volumetric flask, followed by the addition of 100 ml pH 7.2 buffer solution to formulate to a BHVC buffer solution of concentration of 10^−4 mol/L, then 1 ml the above solution was removed to dilute to 10 ml so that the concentration of BHVC was 10^−5 mol/L, 5 ml of this solution was taken and added to a clean spawn bottle.
Then […] ctDNA was taken and added to 10 ml volumetric flask, buffer was added to formulate as 100 μg/ml ctDNA solution, 1 ml this solution was taken, and then added to 4 ml buffer solution, the ctDNA concentration is diluted to 20 μg/ml, the ctDNA solution was added dropwise to the BHVC buffer solution previously placed in the spawn bottle under vigorous stirring. After the addition was completed, the ctDNA solution was allowed to stand still for 2 hours and its UV-Vis absorption and fluorescence spectra were measured.
Based on the study of the absorption and aggregation-induced luminescence properties of BHVC, the fluorescence occurrence behavior of BHVC buffer solution with different ctDNA concentrations was studied with a buffer solution of pH 7.2 and containing 10 mmol/L Tris-HCl and 100 mmol/L KCl, the changes in the detected fluorescence spectrum are shown in FIG. 3 (a). It can be seen from the figure: as the ctDNA concentration increases, the fluorescence intensity of the solution gradually increases, and the fluorescence peak is blue-shifted. When the content of ctDNA changed from 0 μg/ml to 50 μg/ml, the maximum emission peak of fluorescence spectrum shifted from 633 nm to 598 nm, that is blue shifted […]. When the ctDNA concentration was more than 50 μg/ml, the blue shift of the peak of the fluorescence spectrum appeared inflection point, the rate of change slowed down. When the ctDNA content was 500 μg/ml, the peak shifted to 576 nm, which was a blue shift of […] relative to the fluorescence spectrum of a 50 μg/ml DNA solution (FIG. 3 (b)).
The trend in the change of fluorescence intensity of the solution is shown in FIG. 4 (A), with the ctDNA concentration increases, the fluorescence intensity of the solution can be divided into two intervals. […]

[1] = Fluorescence in water, ethanol and acetone (aggregation-induced luminescence); assay type: physicochemical
Description: Fluorescence spectra were measured on a Perkin Elmer LS95, HITACH F-4500, and Edinburgh FLS920 fluorescence spectrometers at room temperature with laterally collection of fluorescence. Fluorescence lifetime was measured using the Edinburgh FLS920 fluorescence spectrometer. Two-photon fluorescence utilized laser pulses emitted by a Ti: sapphire Mira900-F mode-locked laser as the irradiation light source with a repetition frequency of 76 MHz and a pulse width of 200 fs using the SpectroPro 300i spectrometer to collect fluorescence laterally. […] All the test utilized 1.0 cm×1.0 cm Quartet pass quartz crystal cuvette. Reagents used to prepare solutions are either spectroscopic or chromatographic purified.
It can be seen that the fluorescence intensity of BHVC in aqueous solution is very weak and the fluorescence emission peak is at 627 nm. However, the fluorescence intensity in ethanol solution with the same concentration of BHVC increases by 30 times, and the fluorescence emission peak red-shifted to 631 nm. In fact, ethanol is a poor solvent for BHVC. Therefore, BHVC exists in the form of aggregates in ethanol solvent.

[2] = UV-Vis absorption of aqueous solutions at different concentrations (solubility); assay type: physicochemical; conditions: 10^-6 to 10^-4 mol/L, no shift of UV absorption spectrum
From the text: The UV-vis absorption spectra of aqueous solutions of different concentrations of BHVC are shown in FIG. 1, the absorption peak at […] is derived from the absorption of the two cross-shaped skeletons of BHVC, and the absorption peak at […] is the characteristic absorption peak of tetraphenylethylene group. When the concentration of BHVC in aqueous solution changed from 10^−6 mol/L to 10^−4 mol/L, there was no red-shift or blue-shift of the UV absorption spectrum of the solution. In general, the shift of the absorption peak of the π-conjugated chromophore solution is due to the π-π interaction between the molecules.

- increase of fluorescence intensity in ethanol versus aqueous solution ([1]; 10^-5 mol/L, excitation 420 nm): 30 times
- solvent quality of ethanol for the probe ([1]; ethanol, exists as aggregates): poor solvent
- solubility in aqueous solution [2]: good solubility
Compound: CCn1c2cc(/C=C/c3cc[n+](C)cc3)ccc2c2ccc(/C=C/c3cc[n+](C)cc3)cc21.[I-].[I-] [BHVC, 2,7-bis (1-methyl-4-vinylpyridine)-9-ethylcarbazole iodised salt]
- Stern-Volmer constant Ksv (ctDNA; ctDNA 0-50 μg/ml linear interval, I/I0=Ksv[Q]+1, excitation 420 nm): 1.4×10^2
- blue shift of emission peak (to 576 nm) relative to 50 μg/ml DNA solution (ctDNA; ctDNA 500 μg/ml): 24 nm
- increase of fluorescence intensity relative to 0 μg/ml ctDNA (ctDNA; ctDNA 500 μg/ml, BHVC 5×10^-6 mol/L): 20 fold
- blue shift of maximum emission peak (633 nm to 598 nm) (ctDNA; ctDNA from 0 μg/ml to 50 μg/ml): 35 nm
